Assay results as given in patent US12508300B2, “Acylated GLP-1 derivative” (Sciwind Biosciences Co., Ltd., priority 2019, dated 2025).
Read-outs that look alike come from different tables or passages of the source. *1 amine or outer side, *2 acyl side, *3 side chain or, on linkers, in order; H or OH if unused. Where a SMILES comes first, the peptide text is derived from it. Where no end group is shown, it is not given here. Side-chain parts run from the residue outwards. The star is where a group is joined. C18 diacid = O=C(O)CCCCCCCCCCCCCCCCC(=O)*; γGlu = O=C(O)[C@H](CCC(=O)[*:2])N[*:1]; AEEA = NCCOCCOCC(=O)O

Legend:
Type in all cases: in vivo
db/db mice [1] = experiment: Fasting blood glucose after single injection in type II diabetic db/db mice (FIG. 1); settings: 0.05 mg/kg s.c. single, day 4 and day 5
Method: The dosage is 0.05 mg/kg for each, and the administration time is set as 0 h. Fasting blood glucose is measured after fasting for 6-8 h every day, and the fasting blood glucose after administration is measured every day until the fasting blood glucose value of each animal of the test group recovers to the value measured before administration. The blood glucose value measured before administration is called the basal blood glucose value, and is set as 0. Change of the fasting blood glucose (Δ: delta)=Blood glucose value after administration-Basal blood glucose value before administration.

CD-1 mice = settings: 0.15 mg/kg s.c.
Method: Twenty-eight healthy female CD-1 mice aged 4-6 weeks are selected and divided into 4 groups, and they are injected subcutaneously with M4, M5, M7 and M0 at a dose of 0.15 mg/kg body weight.

ICR mice = system: ICR mice; parameters: G-AUC: unit not given here
Method: 20% glucose is intragastrically administered every day according to the time schedule of 4 h, 1 d, 2 d, 3 d, 4 d, and 5 d, at a dose of 2 g/kg body weight, and fasting for 6 hours before administering the glucose; and blood is respectively collected from the tip of the tail at 0 h, 0.5 h, 1 h and 2 h after giving the 20% glucose, then measuring the blood glucose value in real time by using Roche blood glucose test paper.

db/db mice [2] = experiment: Glucose-lowing effect of different doses in type II diabetic db/db mice (fasting, random blood glucose, OGTT G-AUC); settings: for Average changes of the blood glucose area under the curve after administration: OGTT
Method: The administration time is set as 0 h, and the fasting blood glucose and OGTT (oral glucose tolerance assay) are determined after fasting for 7-8 h every day, then 10% glucose is intragastrically administered at 1 g/kg body weight, and then blood is collected from the tip of the tail to measure the blood glucose in real time at 0, 0.5, 1, and 2 h after glucose load. After administration, the blood glucose is measured every day before fasting as random blood glucose, until the fasting blood glucose value of each animal of the test group recovers to the value before administration. All of the basal blood glucose value, random blood glucose value, and the blood glucose area under the curve (G-AUC) value determined before administration are bases for evaluating the efficacy of the medicament, and they are set as 0.
Change of the blood glucose (Δ: delta)=Blood glucose value after administration-Basal blood glucose value before administration.
Change of the blood glucose area under the curve (Δ: delta)=blood glucose area under the curve after administration-blood glucose area under the curve before administration.

CC[C@H](C)[C@H](NC(=O)[C@H](Cc1ccccc1)NC(=O)[C@H](CCC(=O)O)NC(=O)[C@H](CCCNC(=N)N)NC(=O)[C@H](C)NC(=O)[C@H](C)NC(=O)[C@H](CCC(N)=O)NC(=O)[C@H](CCC(=O)O)NC(=O)[C@H](CCC(=O)O)NC(=O)[C@H](CC(C)C)NC(=O)[C@H](Cc1ccc(O)cc1)NC(=O)[C@H](CO)NC(=O)[C@H](CO)NC(=O)[C@@H](NC(=O)[C@H](CC(=O)O)NC(=O)[C@H](CO)NC(=O)[C@@H](NC(=O)[C@H](Cc1ccccc1)NC(=O)[C@@H](NC(=O)CNC(=O)[C@H](CCC(=O)O)NC(=O)[C@@H](NC(=O)[C@@H](N)Cc1c[nH]cn1)[C@@H](C)O)[C@@H](C)O)[C@@H](C)O)C(C)C)C(=O)N[C@@H](CCCCNC(=O)COCCOCCNC(=O)COCCOCCNC(=O)CC[C@H](NC(=O)CCCCCCCCCCCCCCCCC(=O)O)C(=O)O)C(=O)N[C@@H](Cc1c[nH]c2ccccc12)C(=O)N[C@@H](CC(C)C)C(=O)N[C@H](C(=O)N[C@@H](CCCNC(=N)N)C(=O)NCC(=O)N[C@@H](CCCNC(=N)N)C(=O)NCC(=O)O)C(C)C [M13] (H-HTEGTFTSDVSSYLEEQAAREFIK([AEEA-AEEA-γGlu-C18 diacid])WLVRGRG-OH; N-terminus and C-terminus assumed)
glucose-lowing effect compared with Semaglutide (FIG. 1) (db/db mice [1]): better than that of Semaglutide

N-ε^26-[2-(2-[2-(2-[2-(2[4-(17-carboxyheptadecanoylamino)-4(s)-carboxybutyrylamino]ethoxy)ethoxy]acetylamino)ethoxy]ethoxy)acetyl]Val^8Glu^22Lys^26Arg^34-GLP-1(7-37) peptide (HVEGTFTSDVSSYLEEQAAK([AEEA-AEEA-γGlu-C18 diacid])EFIAWLVRGRG) [M0, Lys at position 26, disclosed in CN107033234A]
duration of glucose-lowing effect in normal mice (CD-1 mice; from Table 4): about 3 days | Inhibition rate (blood glucose) (CD-1 mice; Table 4, CD-1 mice, 6 h): 38.47% | Inhibition rate (blood glucose) (CD-1 mice; Table 4, CD-1 mice, 30 h): 33.79% | Inhibition rate (blood glucose) (CD-1 mice; Table 4, CD-1 mice, 54 h): 25.18% | Inhibition rate (blood glucose) (CD-1 mice; Table 4, CD-1 mice, 78 h): 13.43% | Inhibition rate (blood glucose) (CD-1 mice; Table 4, CD-1 mice, 102 h): −1.05% | Inhibition rate (blood glucose) (CD-1 mice; Table 5 (second experiment), CD-1 mice, 6 h): 26.71% | Inhibition rate (blood glucose) (CD-1 mice; Table 5 (second experiment), CD-1 mice, 30 h): 33.57% | Inhibition rate (blood glucose) (CD-1 mice; Table 5 (second experiment), CD-1 mice, 54 h): 17.32% | Inhibition rate (blood glucose) (CD-1 mice; Table 5 (second experiment), CD-1 mice, 78 h): 8.97% | Inhibition rate (blood glucose) (CD-1 mice; Table 5 (second experiment), CD-1 mice, 102 h): −12.89% | G-AUC (ICR mice; 0 h (before administration)): 18.0 ± 1.9 | time the glucose-lowing effect is maintained (ICR mice; 0.15 mg/kg s.c. single): 3 days | G-AUC (ICR mice; 0.15 mg/kg s.c. single, 4 h): 11.1 ± 1.2 | Inhibition rate (blood glucose) (ICR mice; 0.15 mg/kg s.c. single, 4 h): 38.47% | G-AUC (ICR mice; 0.15 mg/kg s.c. single, 1 d): 11.9 ± 0.7 | Inhibition rate (blood glucose) (ICR mice; 0.15 mg/kg s.c. single, 1 d): 33.79% | G-AUC (ICR mice; 0.15 mg/kg s.c. single, 2 d): 13.5 ± 1.1 | Inhibition rate (blood glucose) (ICR mice; 0.15 mg/kg s.c. single, 2 d): 25.18% | G-AUC (ICR mice; 0.15 mg/kg s.c. single, 3 d): 15.6 ± 1.3 | Inhibition rate (blood glucose) (ICR mice; 0.15 mg/kg s.c. single, 3 d): 13.43% | G-AUC (ICR mice; 0.15 mg/kg s.c. single, 4 d): 18.2 ± 1.1 | Inhibition rate (blood glucose) (ICR mice; 0.15 mg/kg s.c. single, 4 d): 0.60% | time after administration at which G-AUC returns to the base before administration (db/db mice [2]; 0.015 mg/kg dosage group): 27 h | time after administration at which fasting blood glucose returns to the basal blood glucose base (db/db mice [2]; 0.015 mg/kg dosage group): 51 h | time after administration at which random blood glucose returns to the base before administration (db/db mice [2]; 0.015 mg/kg dosage group): 67 h | Average changes of fasting blood glucose after administration (db/db mice [2]; 0.015 mg/kg s.c., 3 h): -3.5 mM | Average changes of random blood glucose after administration (db/db mice [2]; 0.015 mg/kg s.c., 6 h): -15.7 mM | Average changes of random blood glucose after administration (db/db mice [2]; 0.015 mg/kg s.c., 19 h): -13.5 mM | Average changes of fasting blood glucose after administration (db/db mice [2]; 0.015 mg/kg s.c., 27 h): -2.7 mM | Average changes of random blood glucose after administration (db/db mice [2]; 0.015 mg/kg s.c., 43 h): -10.1 mM | Average changes of fasting blood glucose after administration (db/db mice [2]; 0.015 mg/kg s.c., 51 h): -2.4 mM | Average changes of random blood glucose after administration (db/db mice [2]; 0.015 mg/kg s.c., 67 h): -3.1 mM | Average changes of fasting blood glucose after administration (db/db mice [2]; 0.015 mg/kg s.c., 75 h): 2.5 mM | Average changes of random blood glucose after administration (db/db mice [2]; 0.015 mg/kg s.c., 91 h): -0.1 mM | Average changes of fasting blood glucose after administration (db/db mice [2]; 0.015 mg/kg s.c., 99 h): 3.9 mM | Average changes of random blood glucose after administration (db/db mice [2]; 0.015 mg/kg s.c., 115 h): 4.9 mM | Average changes of fasting blood glucose after administration (db/db mice [2]; 0.015 mg/kg s.c., 123 h): 3.7 mM | Average changes of random blood glucose after administration (db/db mice [2]; 0.015 mg/kg s.c., 139 h): 5.9 mM | Average changes of fasting blood glucose after administration (db/db mice [2]; 0.015 mg/kg s.c., 147 h): 9.8 mM | time after administration at which G-AUC returns to the base before administration (db/db mice [2]; 0.15 mg/kg dosage group): 51 h | time after administration at which fasting blood glucose returns to the basal blood glucose base (db/db mice [2]; 0.15 mg/kg dosage group): 75 h | time after administration at which random blood glucose returns to the base before administration (db/db mice [2]; 0.15 mg/kg dosage group): 67 h | Average changes of fasting blood glucose after administration (db/db mice [2]; 0.15 mg/kg s.c., 3 h): -4.1 mM | Average changes of random blood glucose after administration (db/db mice [2]; 0.15 mg/kg s.c., 6 h): -15.7 mM | Average changes of random blood glucose after administration (db/db mice [2]; 0.15 mg/kg s.c., 19 h): -14.8 mM | Average changes of fasting blood glucose after administration (db/db mice [2]; 0.15 mg/kg s.c., 27 h): -3.0 mM | Average changes of random blood glucose after administration (db/db mice [2]; 0.15 mg/kg s.c., 43 h): -14.1 mM | Average changes of fasting blood glucose after administration (db/db mice [2]; 0.15 mg/kg s.c., 51 h): -3.2 mM | Average changes of random blood glucose after administration (db/db mice [2]; 0.15 mg/kg s.c., 67 h): -7.1 mM | Average changes of fasting blood glucose after administration (db/db mice [2]; 0.15 mg/kg s.c., 75 h): -0.7 mM | Average changes of random blood glucose after administration (db/db mice [2]; 0.15 mg/kg s.c., 91 h): 1.7 mM | Average changes of fasting blood glucose after administration (db/db mice [2]; 0.15 mg/kg s.c., 99 h): 1.4 mM | Average changes of random blood glucose after administration (db/db mice [2]; 0.15 mg/kg s.c., 115 h): 4.5 mM | Average changes of fasting blood glucose after administration (db/db mice [2]; 0.15 mg/kg s.c., 123 h): 4.4 mM | Average changes of random blood glucose after administration (db/db mice [2]; 0.15 mg/kg s.c., 139 h): 7.8 mM | Average changes of fasting blood glucose after administration (db/db mice [2]; 0.15 mg/kg s.c., 147 h): 6.7 mM | Average changes of the blood glucose area under the curve after administration (db/db mice [2]; 0.015 mg/kg s.c., 3 h): -9.0 mmol/L/h | Average changes of the blood glucose area under the curve after administration (db/db mice [2]; 0.015 mg/kg s.c., 27 h): -5.2 mmol/L/h | Average changes of the blood glucose area under the curve after administration (db/db mice [2]; 0.015 mg/kg s.c., 51 h): 1.1 mmol/L/h | Average changes of the blood glucose area under the curve after administration (db/db mice [2]; 0.015 mg/kg s.c., 75 h): 8.2 mmol/L/h | Average changes of the blood glucose area under the curve after administration (db/db mice [2]; 0.015 mg/kg s.c., 99 h): 7.9 mmol/L/h | Average changes of the blood glucose area under the curve after administration (db/db mice [2]; 0.015 mg/kg s.c., 123 h): 13.0 mmol/L/h | Average changes of the blood glucose area under the curve after administration (db/db mice [2]; 0.015 mg/kg s.c., 147 h): 21.9 mmol/L/h | Average changes of the blood glucose area under the curve after administration (db/db mice [2]; 0.15 mg/kg s.c., 3 h): -10.3 mmol/L/h | Average changes of the blood glucose area under the curve after administration (db/db mice [2]; 0.15 mg/kg s.c., 27 h): -10.2 mmol/L/h | Average changes of the blood glucose area under the curve after administration (db/db mice [2]; 0.15 mg/kg s.c., 51 h): -7.1 mmol/L/h | Average changes of the blood glucose area under the curve after administration (db/db mice [2]; 0.15 mg/kg s.c., 75 h): 1.5 mmol/L/h | Average changes of the blood glucose area under the curve after administration (db/db mice [2]; 0.15 mg/kg s.c., 99 h): 3.9 mmol/L/h | Average changes of the blood glucose area under the curve after administration (db/db mice [2]; 0.15 mg/kg s.c., 123 h): 9.9 mmol/L/h | Average changes of the blood glucose area under the curve after administration (db/db mice [2]; 0.15 mg/kg s.c., 147 h): 16.0 mmol/L/h
